The source made the active and inactive calls. The rule behind the calls is not given here.
Columns and labels:
U-118-MG = experiment: Antiproliferative activity against human U-118-MG cells assessed as cell growth inhibition incubated for 72 hrs by MTT assay; type: functional, cell-based
HL-60 = experiment: Antiproliferative activity against human HL-60 cells assessed as cell growth inhibition incubated for 72 hrs by MTT assay; type: functional, cell-based; conditions: HL-60, 72 h
K562 = experiment: Antiproliferative activity against human K562 cells assessed as cell growth inhibition incubated for 72 hrs by MTT assay; type: functional, cell-based; conditions: K562, 72 h
CCRF-CEM [1] = experiment: Antiproliferative activity against human CCRF-CEM cells assessed as cell growth inhibition incubated for 24 to 72 hrs by CCK8 assay; type: functional, cell-based; conditions: dose 0.1875-20 µM, time 24-72 hrs
CCRF-CEM [2] = experiment: Induction of apoptosis in human CCRF-CEM cells assessed as nuclear condensation upto 4 uM incubated for 48 hrs by Hoechst staining based fluorescent microscopic analysis; type: functional, cell-based
CCRF-CEM [3] = experiment: Induction of apoptosis in human CCRF-CEM cells incubated for 48 hrs by Hoechst staining based fluorescent microscopy; type: functional, cell-based; conditions: dose 1-4 µM
CCRF-CEM [4] = experiment: Induction of apoptosis in human CCRF-CEM cells assessed as viable cells at 0.25 uM incubated for 48 hrs by Annexin V-FITC/PI staining based flow cytometry (reference value: 83.4 %); type: functional; conditions: read-out: Activity
CCRF-CEM [5] = experiment: Induction of apoptosis in human CCRF-CEM cells assessed as late apoptotic cells at 0.25 uM incubated for 48 hrs by Annexin V-FITC/PI staining based flow cytometry (reference value: 3.2 %); type: functional
CCRF-CEM [6] = experiment: Induction of apoptosis in human CCRF-CEM cells assessed as necrotic cells at 0.25 uM incubated for 48 hrs by Annexin V-FITC/PI staining based flow cytometry (reference value: 0.0 %); type: functional
CCRF-CEM [7] = experiment: Induction of apoptosis in human CCRF-CEM cells assessed as viable cells at 0.5 uM incubated for 48 hrs by Annexin V-FITC/PI staining based flow cytometry (reference value: 83.4 %); type: functional; conditions: read-out: Activity
CCRF-CEM [8] = experiment: Induction of apoptosis in human CCRF-CEM cells assessed as late apoptotic cells at 0.5 uM incubated for 48 hrs by Annexin V-FITC/PI staining based flow cytometry (reference value: 3.2 %); type: functional
CCRF-CEM [9] = experiment: Induction of apoptosis in human CCRF-CEM cells assessed as viable cells at 1 uM incubated for 48 hrs by Annexin V-FITC/PI staining based flow cytometry (reference value: 83.4 %); type: functional; conditions: read-out: Activity
CCRF-CEM [10] = experiment: Induction of apoptosis in human CCRF-CEM cells assessed as early apoptotic cells at 1 uM incubated for 48 hrs by Annexin V-FITC/PI staining based flow cytometry (reference value: 13.4 %); type: functional
CCRF-CEM [11] = experiment: Induction of apoptosis in human CCRF-CEM cells assessed as late apoptotic cells at 1 uM incubated for 48 hrs by Annexin V-FITC/PI staining based flow cytometry (reference value: 3.2 %); type: functional
CCRF-CEM [12] = experiment: Induction of apoptosis in human CCRF-CEM cells assessed as necrotic cells at 1 uM incubated for 48 hrs by Annexin V-FITC/PI staining based flow cytometry (reference value: 0.0 %); type: functional
CCRF-CEM [13] = experiment: Induction of apoptosis in human CCRF-CEM cells assessed as viable cells at 2 uM incubated for 48 hrs by Annexin V-FITC/PI staining based flow cytometry (reference value: 83.4 %); type: functional; conditions: read-out: Activity
CCRF-CEM [14] = experiment: Induction of apoptosis in human CCRF-CEM cells assessed as necrotic cells at 2 uM incubated for 48 hrs by Annexin V-FITC/PI staining based flow cytometry (reference value: 0.0 %); type: functional
CCRF-CEM [15] = experiment: Induction of apoptosis in human CCRF-CEM cells assessed as early apoptotic cells at 4 uM incubated for 48 hrs by Annexin V-FITC/PI staining based flow cytometry (reference value: 13.4 %); type: functional
CCRF-CEM [16] = experiment: Induction of apoptosis in human CCRF-CEM cells assessed as necrotic cells at 4 uM incubated for 48 hrs by Annexin V-FITC/PI staining based flow cytometry (reference value: 0.0 %); type: functional
CCRF-CEM [17] = experiment: Induction of apoptosis in human CCRF-CEM cells assessed downregulation of Bcl-2 expression at 0.25 to 0.5 uM incubated for 48 hrs by Western blot analysis; type: functional, cell-based; conditions: dose 0.25-0.5 µM
CCRF-CEM [18] = experiment: Induction of apoptosis in human CCRF-CEM cells assessed effect on procaspase-3 expression at 0.25 to 0.5 uM incubated for 48 hrs by Western blot analysis; type: functional, cell-based; conditions: dose 0.25-0.5 µM
CCRF-CEM [19] = experiment: Induction of apoptosis in human CCRF-CEM cells assessed effect on cleaved caspase-3 expression at 0.25 to 0.5 uM incubated for 48 hrs by Western blot analysis; type: functional, cell-based; conditions: dose 0.25-0.5 µM
CCRF-CEM [20] = experiment: Induction of DNA damage in human CCRF-CEM cells assessed as increase in gammaH2AX phosphorylation at 1 to 4 uM incubated for 24 hrs by DAPI staining based immunofluorescence microscopic analysis; type: functional, cell-based; conditions: dose 1-4 µM
CCRF-CEM [21] = experiment: Induction of cell cycle arrest in human CCRF-CEM cells assessed as cell accumulation at G1 phase at 0.25 uM incubated for 24 hrs by PI staining based flow cytometry analysis (reference value: 24.1 %); type: functional
CCRF-CEM [22] = experiment: Induction of cell cycle arrest in human CCRF-CEM cells assessed as cell accumulation at S phase at 0.25 uM incubated for 24 hrs by PI staining based flow cytometry analysis (reference value: 15.5 %); type: functional
CCRF-CEM [23] = experiment: Induction of cell cycle arrest in human CCRF-CEM cells assessed as cell accumulation at G2/M phase at 0.25 uM incubated for 24 hrs by PI staining based flow cytometry analysis (reference value: 61.3 %); type: functional
CCRF-CEM [24] = experiment: Induction of cell cycle arrest in human CCRF-CEM cells assessed as cell accumulation at G1 phase at 0.5 uM incubated for 24 hrs by PI staining based flow cytometry analysis (reference value: 24.1 %); type: functional
CCRF-CEM [25] = experiment: Induction of cell cycle arrest in human CCRF-CEM cells assessed as cell accumulation at G1 phase at 1 uM incubated for 24 hrs by PI staining based flow cytometry analysis (reference value: 24.1 %); type: functional
CCRF-CEM [26] = experiment: Induction of cell cycle arrest in human CCRF-CEM cells assessed as cell accumulation at S phase at 1 uM incubated for 24 hrs by PI staining based flow cytometry analysis (reference value: 15.5 %); type: functional
CCRF-CEM [27] = experiment: Induction of cell cycle arrest in human CCRF-CEM cells assessed as cell accumulation at G2/M phase at 1 uM incubated for 24 hrs by PI staining based flow cytometry analysis (reference value: 61.3 %); type: functional
CCRF-CEM [28] = experiment: Induction of cell cycle arrest in human CCRF-CEM cells assessed as cell accumulation at S phase at 2 uM incubated for 24 hrs by PI staining based flow cytometry analysis (reference value: 15.5 %); type: functional
CCRF-CEM [29] = experiment: Downregulation of ROS level in human CCRF-CEM cells at 0.125 to 2 uM incubated for 12 hrs by DCFH-DA probe based flow cytometry analysis; type: functional, cell-based; conditions: dose 0.125-2 µM
CCRF-CEM [30] = experiment: Downregulation of ROS level in human CCRF-CEM cells assessed as effect on H2O2 level at 0.125 to 0.5 uM incubated for 12 hrs in presence of NADPH by DCFH-DA probe based flow cytometry analysis; type: functional, cell-based; conditions: dose 0.125-0.5 µM
CCRF-CEM [31] = experiment: Downregulation of ROS level in human CCRF-CEM cells assessed as CAT level at 1 uM incubated for 12 hrs in presence of NADPH by absorbance based assay; type: functional, cell-based

`C[C@@H]1CC[C@H]2[C@@H](C)C(OC(=O)c3ccc(N(CCCl)CCCl)cc3)O[C@@H]3O[C@@]4(C)CC[C@@H]1[C@]32OO4` (some centres undefined) was tested, and the IC50 (U-118-MG) was over 40 µM, the IC50 (HL-60) was 2.32 µM and the IC50 (K562) was 22 µM. For the same molecule, the Activity (CCRF-CEM [1]) was “Dose-Dependent Effect”, the Activity (CCRF-CEM [2]) was “Active” and the Activity (CCRF-CEM [3]) was “Dose-Dependent Effect”. The viability at 0.25 µM (CCRF-CEM [4]) was 67.7%, the Activity (CCRF-CEM [5]) was 11.7% and the Activity (CCRF-CEM [6]) was 0.1%. It also gave a viability at 0.5 µM (CCRF-CEM [7]) of 64.4%, an Activity (CCRF-CEM [8]) of 6.9% and a viability at 1 µM (CCRF-CEM [9]) of 60.4%. For the same molecule, the Activity (CCRF-CEM [10]) was 26.7%, the Activity (CCRF-CEM [11]) was 12.8% and the Activity (CCRF-CEM [12]) was 0.1%. It also gave a viability at 2 µM (CCRF-CEM [13]) of 53.8%, an Activity (CCRF-CEM [14]) of 0.1% and an Activity (CCRF-CEM [15]) of 37.3%. The Activity (CCRF-CEM [16]) was 0.1%, the Activity (CCRF-CEM [17]) was “Active” and the Activity (CCRF-CEM [18]) was “inactive”. For the same molecule, the AC30 (CCRF-CEM [19]) was “inactive”, the Activity (CCRF-CEM [20]) was “Active” and the Activity (CCRF-CEM [21]) was 26.8%. The Activity (CCRF-CEM [22]) was 7.9%, the Activity (CCRF-CEM [23]) was 65.9% and the Activity (CCRF-CEM [24]) was 22.8%. It also gave an Activity (CCRF-CEM [25]) of 18.2%, an Activity (CCRF-CEM [26]) of 35.1% and an Activity (CCRF-CEM [27]) of 47.6%. The Activity (CCRF-CEM [28]) was 6.5%, the Activity (CCRF-CEM [29]) was “Dose-Dependent Effect” and the Activity (CCRF-CEM [30]) was “Active”. For the same molecule, the Activity (CCRF-CEM [31]) was “inactive”.
